Measurements published in article PMC12587574, “Mass balance, pharmacokinetics, metabolism, and excretion of radiolabeled acoziborole, a potential novel treatment for human African trypanosomiasis, following single microtracer oral dose to humans” (Antimicrobial Agents and Chemotherapy, 2025).
Like-named read-outs stand apart in the source and are kept apart here.

Legend:
[1] = Plasma pharmacokinetics of acoziborole and SCYX-3109 by LC-MS/MS, phase I mass balance study; assay type: in vivo, human
Protocol: This single-center, open-label, single group, non-randomized, single oral dose study was performed at Quotient Sciences Ltd (Ruddington, Nottingham, UK). Clinical trial authorization was obtained from the Medicines and Healthcare Products Regulatory Agency (UK). Approval for administration of [^14C]-acoziborole was obtained from an expert committee sponsored by the Department of Health and Social Care in the United Kingdom (Administration of Radioactive Substances Advisory Committee [ARSAC]), and from the ARSAC-accredited Quotient Sciences’ nuclear medicine practitioner. This study was approved by a local research ethics committee in the United Kingdom and was conducted in compliance with the Declaration of Helsinki and the International Conference on Harmonisation E6 Guideline for Good Clinical Practice. The study was registered in clinicaltrials.gov (NCT04270981) and in EudraCT (reference 2019-004059-35). Written informed consent was obtained from all participants before undertaking any study-related procedures.
Participants were admitted in the evening of the day before dosing (Day −1) and were dosed in the morning of Day 1, following an overnight fast from food and drink of a minimum of 9 h. They remained fasted until approximately 4 h post-dose, at which time lunch was provided. Participants remained resident in the clinic until up to 240 h after dosing (up to Day 11). […] However, due to the COVID-19 pandemic, instead of returning for the outpatient visits, participants were requested to perform home collection of feces for a 48-h period (i.e., Days 31–33, Days 59–61, Days 89–91, and Days 119–121). Collected samples were couriered to the clinical unit at the end of each collection period. A follow-up call took place 5–10 days after the final outpatient visit to ensure the well-being of participants.
Venous blood samples were collected via an indwelling cannula or by venepuncture. A 12 mL sample was taken into heparinized glass tube and chilled on ice immediately before IP administration and 3 mL samples were taken at 1, 4, 9, 12, 24, 48, 72, 96, 120, 144, 168, and 240 h and on Days 15, 31, 59, 89, and 119 after IP administration. The first 0.5 mL of blood withdrawn via cannula was discarded. One aliquot of heparinized whole blood (1 mL) per time point was stored at or below −20°C for total radioactivity analysis. The remaining blood was centrifuged, and the harvested plasma was stored at approximately −20°C for bioanalysis or transferred (exactly 1 mL) into polypropylene tubes pre-filled with 5 µL formic acid. One plasma sample (0.5 mL) was used for metabolite profiling while another (0.5 mL) was used for parent drug and SCYX-3109 metabolite analysis. The remaining plasma was used for total radioactivity analysis.
SGS Belgium (Wavre, Belgium) performed the analysis to determine acoziborole and SCYX-3109 concentrations, using validated bioanalytical assays with liquid chromatography with tandem mass spectrometry (LC-MS/MS) with a Supelco Ascentis Express C8, 2.7 µm, 50 × 2.1 mm I.D. separation column. In plasma, the lower limit of quantification (LLOQ) was 25 ng/mL for acoziborole and 10 ng/mL for SCYX-3109. In urine, the LLOQ was 10 ng/mL for both acoziborole and SCYX-3109.
PK parameters were calculated based on actual sampling times using standard non-compartmental analysis and WinNonlin version 8.1 software (Certara, Princeton, NJ, USA).
The SCYX-3109 to parent ratios were calculated based on Cmax and AUC0–∞.

CYP3A4 = molecular target: T1, CYP3A4 (Homo sapiens, UniProt P08684); assay: Incubation with CYP450 recombinant enzymes (Bactosomes) and NADPH; assay type: in vitro ADME; settings: 1 µM
T1 construct: purchased
T1 sequence (P08684 whole entry): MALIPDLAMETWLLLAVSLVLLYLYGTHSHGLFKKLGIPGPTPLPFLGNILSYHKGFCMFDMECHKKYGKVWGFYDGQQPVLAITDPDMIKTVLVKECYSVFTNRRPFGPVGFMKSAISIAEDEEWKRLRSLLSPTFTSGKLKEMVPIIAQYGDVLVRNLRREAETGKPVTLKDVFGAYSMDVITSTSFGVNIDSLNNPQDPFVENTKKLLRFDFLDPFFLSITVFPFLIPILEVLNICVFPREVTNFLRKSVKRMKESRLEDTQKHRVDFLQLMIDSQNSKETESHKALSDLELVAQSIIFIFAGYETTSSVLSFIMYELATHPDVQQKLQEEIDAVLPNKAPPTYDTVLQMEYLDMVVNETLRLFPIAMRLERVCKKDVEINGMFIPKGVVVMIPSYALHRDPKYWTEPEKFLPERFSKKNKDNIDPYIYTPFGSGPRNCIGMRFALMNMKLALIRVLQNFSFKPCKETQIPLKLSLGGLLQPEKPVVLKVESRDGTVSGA

CC1(C)OB(O)c2cc(NC(=O)c3ccc(F)cc3C(F)(F)F)ccc21 [acoziborole]
mean t1/2 ratio of acoziborole to total radioactivity in blood ([1]; 960 mg single oral dose): 1.1 | mean t1/2 ratio of acoziborole to total radioactivity in plasma ([1]; 960 mg single oral dose): 1.0 | share of the radioactivity in plasma, based on AUC0–240h and AUC0–∞ ratios of acoziborole to total radioactivity ([1]; 960 mg single oral dose): ~100% | t1/2 in plasma ([1]; 960 mg single oral dose of acoziborole, N = 6, mean ± SD): 272.1 ± 36.3 h | CL/F (apparent total body clearance) ([1]; 960 mg single oral dose, plasma, N = 6, mean ± SD): 0.2 ± 0.0 L/h | time first detected in plasma after dosing ([1]; after 960 mg single oral [14C]-acoziborole): 1 h | AUC(0-t) ([1]; human, plasma, po, 960 mg, 960 mg single oral dose of acoziborole, N = 6, mean ± SD, read-out: AUC0–240h in plasma): 2520 µg·h/mL | AUC(0-t) ([1]; human, plasma, po, 960 mg, 960 mg single oral dose of acoziborole, N = 6, mean ± SD, read-out: AUC0–t in plasma): 5920 µg·h/mL | Tmax ([1]; human, plasma, po, 960 mg, 960 mg single oral dose of acoziborole, N = 6, mean ± SD, read-out: tmax in plasma): 52 ± 9.8 h | AUC(0-inf) ([1]; human, plasma, 960 mg single oral dose of acoziborole, N = 6, mean ± SD, read-out: AUC0–∞ in plasma): 6450 µg·h/mL | half-life ([1]; male, human, plasma, po, 960 mg, 960 mg single oral dose of acoziborole, N = 6, mean ± SD, read-out: t1/2 in plasma (converted)): 272 h | Tmax ([1]; male, human, plasma, po, 960 mg, 960 mg single oral dose, N = 6, read-out: individual tmax values in plasma): 48 to 72 h | Tmax ([1]; male, human, plasma, po, 960 mg, 960 mg single oral dose, N = 6, read-out: median tmax in plasma): 48 h | Cmax ([1]; male, human, plasma, 960 mg single oral dose of acoziborole, healthy males, N = 6, mean ± SD): 14200 ± 1980 ng/mL | Vd/F ([1]; male, human, 960 mg single oral dose, plasma, N = 6, mean ± SD, read-out: Vz/F (apparent volume of distribution during the terminal phase)): 59.1 ± 7.3 L | metabolism by recombinant CYP3A4 (CYP3A4): metabolized by
